Data taken from the supplement of paper PMC10307832.

Compound: C1=CC2=C(C=C(C(=C2N=C1)O)N=NC3=CC4=C(C=C3)C=C(C=C4)S(=O)(=O)O)S(=O)(=O)O
Assay: relative viability (nuclei count vs DMSO), 5 days (fraction); higher = more cells survive
Conditions: 0.08 µM
In short: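 Viability was read as treated-well nuclei divided by vehicle-well nuclei, using the median across plates. Lung cancer cell lines in 1536-well plates were kept overnight at 37 °C, pinned with five √10-spaced library-drug doses, and after 5 days were Hoechst-stained, imaged at 4× and counted in MetaXpress. Plates passed only with control CV below 25% and at least one doubling.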

HCC-366 and NCI-H1666 are the same in relative viability: 1.04 for the first, 1.04 for the second.

Compared with NCI-H596, LK-2 is lower in relative viability: 1.06 for the first, 1.05 for the second.

Compared with NCI-H2087, SK-MES-1 is higher in relative viability: 0.942 for the first, 1.03 for the second.

First: H3255
Second: COR-L23
The relative viability of the first is lower: 1.01 for the first, 1.09 for the second.

Going from COR-L 105 to IA-LM, the relative viability rises from 0.988 to 1.02.

Compared with LOU-NH91, NCI-H2170 is higher in relative viability: 0.964 for the first, 1.07 for the second.

First: NCI-H2405
Second: HOP-62
The relative viability of the first is lower: 0.972 for the first, 1.06 for the second.

First: HCC-44
Second: A549
The relative viability of the first is lower: 1.02 for the first, 1.1 for the second.

Compared with LU99A, BEN is lower in relative viability: 1.02 for the first, 0.976 for the second.

HARA and HCC-78 are the same in relative viability: 1.03 for the first, 1.03 for the second.

Compared with NCI-H322M, LCLC-97TM1 is higher in relative viability: 1.07 for the first, 1.16 for the second.

Going from NCI-H2009 to A-427, the relative viability rises from 1.02 to 1.05.

Going from NCI-H661 to NCI-H1734, the relative viability rises from 1.02 to 1.12.

Compared with NCI-H460, NCI-H2347 is lower in relative viability: 1.07 for the first, 1.06 for the second.

First: SK-LU-1
Second: NCI-H1395
The relative viability of the first is higher: 1.17 for the first, 0.9 for the second.

First: 201T
Second: NCI-H1915
The relative viability of the first is lower: 1.01 for the first, 1.02 for the second.

Going from HCC-827 to LXF-289, the relative viability rises from 1.08 to 1.09.

Same assay, conditions: 0.253 µM

First: Calu-6
Second: HCC-366
The relative viability of the first is higher: 1.02 for the first, 0.964 for the second.

Compared with NCI-H1666, NCI-H596 is lower in relative viability: 1.03 for the first, 0.987 for the second.

Going from LK-2 to NCI-H2087, the relative viability rises from 0.973 to 0.999.

First: SK-MES-1
Second: H3255
The relative viability of the first is higher: 0.967 for the first, 0.965 for the second.

Compared with COR-L23, COR-L 105 is lower in relative viability: 1.04 for the first, 0.78 for the second.

Going from IA-LM to LOU-NH91, the relative viability rises from 0.954 to 0.978.

Going from NCI-H2170 to NCI-H2405, the relative viability falls from 0.988 to 0.919.

Compared with HOP-62, HCC-44 is higher in relative viability: 0.931 for the first, 0.959 for the second.

Going from A549 to LU99A, the relative viability falls from 0.986 to 0.936.

Going from BEN to HARA, the relative viability falls from 0.933 to 0.871.

Going from HCC-78 to NCI-H322M, the relative viability falls from 0.957 to 0.93.

Going from LCLC-97TM1 to NCI-H2009, the relative viability rises from 0.873 to 0.987.

First: A-427
Second: NCI-H661
The relative viability of the first is lower: 0.971 for the first, 1 for the second.

Compared with NCI-H1734, NCI-H460 is higher in relative viability: 0.981 for the first, 0.992 for the second.

Going from NCI-H2347 to SK-LU-1, the relative viability rises from 0.941 to 1.02.

Going from NCI-H1395 to 201T, the relative viability rises from 0.939 to 0.995.

First: NCI-H1915
Second: HCC-827
The relative viability of the first is lower: 0.968 for the first, 0.997 for the second.

In the case of LXF-289, the relative viability is reported as 0.958.

Same assay, conditions: 0.8 µM

Compared with Calu-6, HCC-366 is higher in relative viability: 0.962 for the first, 0.993 for the second.

Going from NCI-H1666 to NCI-H596, the relative viability falls from 0.991 to 0.982.

Compared with LK-2, NCI-H2087 is higher in relative viability: 0.876 for the first, 0.941 for the second.

Going from SK-MES-1 to H3255, the relative viability rises from 0.968 to 1.01.

Going from COR-L23 to COR-L 105, the relative viability falls from 1 to 0.95.

First: IA-LM
Second: LOU-NH91
The relative viability of the first is lower: 0.785 for the first, 0.99 for the second.

First: NCI-H2170
Second: NCI-H2405
The relative viability of the first is lower: 0.97 for the first, 0.984 for the second.

Going from HOP-62 to HCC-44, the relative viability falls from 0.964 to 0.952.

Compared with A549, LU99A is lower in relative viability: 0.926 for the first, 0.901 for the second.

Going from BEN to HARA, the relative viability rises from 0.895 to 0.995.

Going from HCC-78 to NCI-H322M, the relative viability rises from 0.894 to 0.901.

First: LCLC-97TM1
Second: NCI-H2009
The relative viability of the first is lower: 0.833 for the first, 1.03 for the second.

Compared with A-427, NCI-H661 is higher in relative viability: 0.936 for the first, 0.969 for the second.

Compared with NCI-H1734, NCI-H460 is higher in relative viability: 0.951 for the first, 0.977 for the second.

Compared with NCI-H2347, SK-LU-1 is higher in relative viability: 0.974 for the first, 1.02 for the second.

Going from NCI-H1395 to 201T, the relative viability rises from 0.843 to 0.985.

First: NCI-H1915
Second: HCC-827
The relative viability of the first is lower: 0.989 for the first, 1.01 for the second.

Work on LXF-289 yielded a relative viability of 1.01.

Same assay, conditions: 2.53 µM

Going from Calu-6 to HCC-366, the relative viability falls from 1.01 to 0.997.

Going from NCI-H1666 to NCI-H596, the relative viability rises from 0.966 to 1.03.

Going from LK-2 to NCI-H2087, the relative viability rises from 0.911 to 0.934.

First: SK-MES-1
Second: H3255
The relative viability of the first is lower: 0.987 for the first, 1.03 for the second.

Compared with COR-L23, COR-L 105 is higher in relative viability: 1.05 for the first, 1.06 for the second.

First: IA-LM
Second: LOU-NH91
The relative viability of the first is lower: 0.896 for the first, 0.989 for the second.

NCI-H2170 and NCI-H2405 are the same in relative viability: 1.02 for the first, 1.02 for the second.

Compared with HOP-62, HCC-44 is higher in relative viability: 1.03 for the first, 1.05 for the second.

Compared with A549, LU99A is lower in relative viability: 1 for the first, 0.95 for the second.

First: BEN
Second: HARA
The relative viability of the first is higher: 0.986 for the first, 0.953 for the second.

Going from HCC-78 to NCI-H322M, the relative viability falls from 1.03 to 0.877.

First: LCLC-97TM1
Second: NCI-H2009
The relative viability of the first is lower: 0.926 for the first, 1.01 for the second.

First: A-427
Second: NCI-H661
The relative viability of the first is lower: 0.963 for the first, 1.01 for the second.

Going from NCI-H1734 to NCI-H460, the relative viability rises from 0.92 to 0.987.

Going from NCI-H2347 to SK-LU-1, the relative viability falls from 1.02 to 0.979.

Going from NCI-H1395 to 201T, the relative viability rises from 0.976 to 1.03.

First: NCI-H1915
Second: HCC-827
The relative viability of the first is lower: 0.987 for the first, 1.02 for the second.

With LXF-289 the relative viability was 1.04.

Same assay, conditions: 8 µM

First: Calu-6
Second: HCC-366
The relative viability of the first is higher: 1.01 for the first, 0.897 for the second.

Going from NCI-H1666 to NCI-H596, the relative viability falls from 1.02 to 1.01.

Compared with LK-2, NCI-H2087 is higher in relative viability: 0.797 for the first, 0.869 for the second.

Compared with SK-MES-1, H3255 is higher in relative viability: 1.02 for the first, 1.04 for the second.

Going from COR-L23 to COR-L 105, the relative viability falls from 0.946 to 0.865.

Compared with IA-LM, LOU-NH91 is higher in relative viability: 0.934 for the first, 0.948 for the second.

Compared with NCI-H2170, NCI-H2405 is lower in relative viability: 0.932 for the first, 0.877 for the second.

Going from HOP-62 to HCC-44, the relative viability falls from 1.04 to 1.

Compared with A549, LU99A is higher in relative viability: 0.884 for the first, 0.948 for the second.
